Reference: patent publication US20250075176A1, “COMPOSITIONS COMPRISING HISTONE […] INHIBITORS OR REVERSE TRANSCRIPTASE INHIBITORS AND USE THEREOF” (FOREVE LABS LTD., priority 2022, published 2025)

How the values were obtained:
old mouse oocytes = assay: In vitro maturation of old mouse oocytes in medium supplemented with drug; assay type: cell-based; conditions: for ability to induce maturation (first polar body extrusion and proper chromosome division): IVM media (a-MEM) with inhibitor, 24 hours, curcumin positive control, FIG. 9C-9D
Text: (§1) Mouse oocyte in vitro maturation: After Euthanasia, ovaries were collected and dissected in L-15 medium (011151A) and supplemented with 200 um IBMX (17018) to prevent meiotic progression. Prophase I arrested oocytes were identified by visualization of the typical germinal vesicle and collected under a binocular using a Stripper (MD-MXL3-STR-CGR). After collection, oocytes were transferred into a-MEM medium (22561021) supplemented with IBMX covered with Mineral oil (M8410-11) to prevent evaporation, for recovery time of 25 min at 37° in a 5% CO2 incubator, and then washed in IBMX free a-MEM medium to initiate meiosis. The oocytes were incubated in a-MEM under oil in the incubator for 6 hours for prophase I or incubated for 19 hours for metaphase II. To assess maturation rates, oocytes were incubated for 19 hours after release and then fixed and stained by Hoechst to examine the entry into the second meiotic division. See below amendments for drug treatments.
Drug treatments: Ovaries were collected and dissected in L-15 medium supplemented with 200 um IBMX to prevent meiotic progression as described above. Prophase I arrested oocytes were collected using a Stripper as described above. After collection, oocytes were transferred to a-MEM medium supplemented with IBMX +the desired drug covered with Mineral oil to prevent evaporation, for 4 hours at 37° in a 5% CO2 incubator (Since Chaetocin and IBMX have a cross reactivity with each other, the pause was not performed in Chaetocin experiments). After the pause, oocytes were washed in IBMX-free a-MEM that contains the drug to initiate meiosis. 19 hours after oocytes were released from IBMX, oocytes were fixed in PFA, permeabilized, and sealed as described above. Chaetocin is a hazarzous substance. For biosafety reasons, Chaetocin supplemented plates and matched controls were placed in a sealed chamber during incubation time.
It was next tested if similar results could be achieved without genetic manipulation. Old oocytes were treated with two different naturally occurring histone acetyltransferase (HAT) inhibitors: curcumin and garcinol. As a negative control, oocytes were given vehicle only. […] Next, a broader panel of naturally occurring HAT inhibitors were tested along with another reverse transcriptase (RT) inhibitor (FIG. 9C). As before, old oocytes were incubated in IVM media (a-MEM) supplemented with the inhibitors for 24 hours and maturation was measured. Oocytes with both first polar body extrusion and proper division of chromosomes (as evaluated by Hoechst staining) were considered as mature. Curcumin was used as a positive control.

H3K9me2 [1] = assay: In situ staining intensity for H3K9me2 (heterochromatin) in old oocytes; assay type: cell-based, mouse; conditions: aged oocytes cultured with SRT-1720, FIG. 8G
Experimental: Mouse oocytes collection for in situ immunofluorescence: After Euthanasia, ovaries were collected and dissected in M2 medium (M7167). Oocytes were collected from pool of 3 animals at least (numbers of each experiment are noted in legend). Prophase I arrested oocytes were collected under a binocular using a Stripper and washed in hyaluronidase (H4272-30 MG) to remove granulosa cells and acidic Tyrode's Solution (T1788) to remove the Zona Pellucida. The oocytes were fixed using PFA 4% (15710) for 20 min, and then quenched in PBS supplemented with 10 mM glycine and 1% BSA.
(§2) In situ immunofluorescence: Permeabilization was performed using 0.1% Triton X-100. Cells were cultured in PBS contains 5% BSA for blocking, and first and secondary antibodies were diluted in 0.1 Tween 20 (P9416)/PBS containing 5% BSA. The immune-stained cells were mounted in Vectashield (H-1000) mounting medium containing 80 nM of Hoechst (33342) and sealed on a slide using an Imaging spacer (GBL654002).
Imaging and quantification: Oocytes were imaged using the Ti-Eclipse Nikon system, with an Andor Zyla nsc05537 camera. […] Every cell was imaged at multiple planes. In order to analyze the images in a quantitatively, a projection of maximum intensity was created. To measure staining intensity, every assessed region was normalized to an equal-size region in the background (outside the area of interest). […]

Rad51 = Rad51 nuclear localization (DNA damage response) in treated young oocytes; assay type: cell-based, mouse; conditions: TSA 100 nm
Experimental: as §2
(§3) Imaging and quantification: Oocytes were imaged using the Ti-Eclipse Nikon system, with an Andor Zyla nsc05537 camera. […] Every cell was imaged at multiple planes. In order to analyze the images in a quantitatively, a projection of maximum intensity was created. To measure staining intensity, every assessed region was normalized to an equal-size region in the background (outside the area of interest). The intensity score was generated by dividing the intensity in the area of interest by that of the background.
(§4) Drug treatments: Ovaries were collected and dissected in L-15 medium supplemented with 200 um IBMX to prevent meiotic progression as described above. Prophase I arrested oocytes were collected using a Stripper as described above. […]

L1-encoded ORF1p = assay: In situ immunofluorescence for L1-ORF1p in treated young oocytes; assay type: cell-based, mouse; conditions: TSA 100 nm
Experimental: as §2, §3, §4

H3K4me3 = assay: In situ staining for H3K4me3 in treated young oocytes; assay type: cell-based, mouse; conditions: TSA 100 nm
Experimental: as §2, §3, §4

H3K9me2 [2] = assay: H3K9me2 staining in treated young oocytes; assay type: cell-based, mouse; conditions: TSA 100 nm, 4 h arrest then 18 h until MII
Experimental: Chromosome spread and immunofluorescence: Prophase I arrested oocytes were collected from ovaries as above and incubated for 6 hours to reach the first prophase or for 17 hours to reach second meiosis prophase as described above. Matured oocytes were washed in M2 medium and then in acidic Tyrode's Solution to remove the Zona Pellucida. 15 min before the desired time for chromosome spread, oocytes were kept in hypotonic solution, composed of FBS (F7524) diluted in DDW in 1:1 ratio. Oocytes were then spread in spreading solution (1% PFA buffered to 9.2 pH, supplemented with 0.15% Triton X-100and 0.03% […]) on Superfrost plus slides (32090003). To assess ploidy, prophase II spreads were stained with Hoechst to visualize chromatin and CREST to visualize the centromeres, and the imaged chromosome were manually counted.
In situ immunofluorescence: Permeabilization was performed using 0.1% Triton X-100. […]
Imaging and quantification: Oocytes were imaged using the Ti-Eclipse Nikon system, with an Andor Zyla nsc05537 camera. […] In order to analyze the images in a quantitatively, a projection of maximum intensity was created. To measure staining intensity, every assessed region was normalized to an equal-size region in the background (outside the area of interest). […]

H3K27Ac = assay: In situ staining for H3K27Ac in treated young oocytes; assay type: cell-based, mouse; conditions: TSA 100 nm, 4 h arrest then 18 h until MII
Experimental: as §2, §3, §4

[3] = Acidity of the molecule and effect on medium pH; assay type: physicochemical
Text: The pH of the medium used was around 7.3 with buffering capacity between 6.9 and 7.6. […] This acidity interfered with maturation and indeed in the case of the two strongly acidic molecules inhibited it. Medium with a greater buffering capacity or a different concentration of these acidic molecules will allow for HAT inhibition induced maturation improvement.

PCAF = PCAF (Homo sapiens, UniProt Q92831); conditions: cited from earlier work
Sequence of PCAF (Q92831 whole entry, species assumed): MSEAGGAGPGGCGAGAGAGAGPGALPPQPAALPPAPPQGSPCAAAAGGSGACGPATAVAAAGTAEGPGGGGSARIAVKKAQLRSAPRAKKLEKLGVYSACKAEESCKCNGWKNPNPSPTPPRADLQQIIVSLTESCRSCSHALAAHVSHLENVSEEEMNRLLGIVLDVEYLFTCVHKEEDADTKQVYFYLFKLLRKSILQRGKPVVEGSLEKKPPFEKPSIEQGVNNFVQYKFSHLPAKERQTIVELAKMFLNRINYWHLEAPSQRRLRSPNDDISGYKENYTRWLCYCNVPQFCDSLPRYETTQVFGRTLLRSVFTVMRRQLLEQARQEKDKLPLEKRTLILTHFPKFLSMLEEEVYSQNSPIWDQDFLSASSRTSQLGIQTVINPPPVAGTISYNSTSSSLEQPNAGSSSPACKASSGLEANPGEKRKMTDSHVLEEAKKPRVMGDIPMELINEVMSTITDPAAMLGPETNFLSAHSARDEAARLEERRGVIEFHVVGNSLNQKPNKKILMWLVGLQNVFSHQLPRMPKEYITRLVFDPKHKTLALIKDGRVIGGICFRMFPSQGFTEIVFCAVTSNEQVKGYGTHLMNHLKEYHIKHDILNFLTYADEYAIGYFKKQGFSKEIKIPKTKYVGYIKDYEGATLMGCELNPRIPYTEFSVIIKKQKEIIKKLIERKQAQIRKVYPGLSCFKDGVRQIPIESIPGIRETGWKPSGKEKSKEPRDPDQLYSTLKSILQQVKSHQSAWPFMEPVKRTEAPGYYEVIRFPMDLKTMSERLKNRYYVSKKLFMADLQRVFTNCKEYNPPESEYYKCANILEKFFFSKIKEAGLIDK

human oocytes = assay: Human oocyte IVM with HAT or RT inhibitor supplementation; assay type: cell-based; conditions: oocytes from young fertility preservation patients, Sage medium with LH and FSH, FIG. 11
Experimental: Human IVM protocol: Germinal vesicle (GV) oocytes were subjected to IVM in a Sage medium (A1-rad Medical) supplemented with 0.075 IU/mL luteinizing hormone (LH) and 0.075 IU/mL follicle stimulating hormone (FSH) overnight. HAT and/or RT inhibitors were added to the overnight culture in some experiments. All naked oocytes that were found were transferred for up to 48 hours of incubation in oocyte maturation medium (Sage In-Vitro Fertilization) supplemented with 0.075 IU/mL human menopausal gonadotropin (hMG) (Menopur, Ferring Pharmaceuticals). HAT and/or RT inhibitors were added to the 48-hour culture in some experiments. After 24 hours of incubation, the media was searched for mature oocytes that were immediately frozen. The media were then incubated for another 24 hours and searched again for other mature oocytes.
To also look at non-arrested human oocytes, we investigated the behavior of another cohort of human oocytes extracted from patients undergoing gonadotoxic treatment and therefore undergoing fertility preservation. In these cases, when hormonal induction and oocyte extraction are not possible due to the young age of the patient or social reasons, ovary surgical extraction is performed. After extraction, ovaries are dissected in medium in the IVF lab, and ovary tissue is cryopreserved. After remission, ovary tissue can be transplanted, and IVF performed. […]

older oocytes = conditions: aged animals, previously shown; cited from earlier work
young mouse oocytes = assay: In vitro maturation of young mouse oocytes treated with epigenetic drugs; assay type: cell-based; conditions: 2-month-old oocytes, Chaetocin 0.5 μM 18 h, FIG. 7A
Text: as §1, §4

## O=C(Nc1ccccc1-c1cn2c(CN3CCNCC3)csc2n1)c1cnc2ccccc2n1 [SRT-1720]
Old mouse oocytes; aged oocytes cultured with SRT-1720, FIG. 8H
  maturation ability of treated cells: recovered maturation ability
H3K9me2 [1]
  heterochromatin (H3K9me2 staining intensity): heterochromatin elevation

## CC(/C=C/C(=O)NO)=C\[C@@H](C)C(=O)c1ccc(N(C)C)cc1 [TSA, Trichostatin A]
Rad51
  DNA damage response (Rad51 nuclear localization): elevated
L1-encoded ORF1p
  L1-ORF1p localization: accumulates in nuclei
  L1-encoded ORF1p overall signal level: do not show a L1-encoded ORF1p elevation
H3K4me3
  staining for H3K4me3: unchanged
H3K9me2 [2]
  H3K9me2 in situ staining: decrease
H3K27Ac
  H3K27Ac in situ staining: increase

## CCCCCCCCCCCCCCCc1cccc(O)c1C(=O)O [anacardic acid]
[3]
  acidity: highly acidic
Old mouse oocytes; old oocytes
  ability to induce maturation (first polar body extrusion and proper chromosome division): did not produce increased maturation
PCAF
  PCAF inhibition: strongly inhibit

## COc1cc(/C=C/C(=O)CC(=O)/C=C/c2ccc(O)c(OC)c2)ccc1O [Curcumin]
Human oocytes
  maturation ability of human oocytes: did not impair their maturation ability and even increased it
Old mouse oocytes; old oocytes, curcumin 10 um, FIG. 9A
  maturation rate at the highest dose: over 80%
Old mouse oocytes; old oocytes, vehicle-only negative control, FIG. 9A-9B
  maturation rate versus vehicle: dose dependent increase
PCAF
  PCAF inhibition: do not

## NC(=O)c1ccc[n+]([C@@H]2O[C@H](COP(=O)([O-])OP(=O)(O)OC[C@H]3O[C@@H](n4cnc5c(N)ncnc54)[C@H](O)[C@@H]3O)[C@@H](O)[C@H]2O)c1 [NAD+, nicotinamide adenine dinucleotide]
Older oocytes
  oocyte quality: rejuvenated oocyte quality

## CC(C)=CCC[C@]1(C)C=Cc2c(O)c3c(c(CC=C(C)C)c2O1)O[C@]12C(=C[C@@H]4C[C@H]1C(C)(C)O[C@@]2(C/C=C(/C)C(=O)O)C4=O)C3=O [gambogic acid]
[3]
  acidity: highly acidic
Old mouse oocytes; old oocytes
  ability to induce maturation (first polar body extrusion and proper chromosome division): did not produce increased maturation
PCAF
  PCAF inhibition: strongly inhibit

## O=C(O[C@@H]1Cc2c(O)cc(O)cc2O[C@@H]1c1cc(O)c(O)c(O)c1)c1cc(O)c(O)c(O)c1 [EGCG, Epigallocatechin gallate]
[3]
  acidity: more weakly acidic
Old mouse oocytes; old oocytes
  ability to induce maturation (first polar body extrusion and proper chromosome division): did not produce increased maturation

## CC1=CC(=O)c2c(O)cccc2C1=O [Plumbagin]
Old mouse oocytes; old oocytes
  ability to induce maturation (first polar body extrusion and proper chromosome division): comparable to curcumin
PCAF
  PCAF inhibition: do not

## CN1C(=O)[C@@]23C[C@]4([C@]56C[C@@]78SS[C@@](CO)(C(=O)N7[C@H]5Nc5ccccc56)N(C)C8=O)c5ccccc5N[C@@H]4N2C(=O)[C@]1(CO)SS3 [Chaetocin]
Young mouse oocytes
  reduction in oocytes that properly mature: 18%
